# Target: PI3K-alpha (Homo sapiens (Human), UniProt P42336)
# Test: HTRF PI3K biochemical assay, alpha isoform
# Details: ratio PI3K-alpha IC50 value/PI3K-delta IC50 value
# Sequence of PI3K-alpha (P42336 whole entry, looked up, canonical isoform): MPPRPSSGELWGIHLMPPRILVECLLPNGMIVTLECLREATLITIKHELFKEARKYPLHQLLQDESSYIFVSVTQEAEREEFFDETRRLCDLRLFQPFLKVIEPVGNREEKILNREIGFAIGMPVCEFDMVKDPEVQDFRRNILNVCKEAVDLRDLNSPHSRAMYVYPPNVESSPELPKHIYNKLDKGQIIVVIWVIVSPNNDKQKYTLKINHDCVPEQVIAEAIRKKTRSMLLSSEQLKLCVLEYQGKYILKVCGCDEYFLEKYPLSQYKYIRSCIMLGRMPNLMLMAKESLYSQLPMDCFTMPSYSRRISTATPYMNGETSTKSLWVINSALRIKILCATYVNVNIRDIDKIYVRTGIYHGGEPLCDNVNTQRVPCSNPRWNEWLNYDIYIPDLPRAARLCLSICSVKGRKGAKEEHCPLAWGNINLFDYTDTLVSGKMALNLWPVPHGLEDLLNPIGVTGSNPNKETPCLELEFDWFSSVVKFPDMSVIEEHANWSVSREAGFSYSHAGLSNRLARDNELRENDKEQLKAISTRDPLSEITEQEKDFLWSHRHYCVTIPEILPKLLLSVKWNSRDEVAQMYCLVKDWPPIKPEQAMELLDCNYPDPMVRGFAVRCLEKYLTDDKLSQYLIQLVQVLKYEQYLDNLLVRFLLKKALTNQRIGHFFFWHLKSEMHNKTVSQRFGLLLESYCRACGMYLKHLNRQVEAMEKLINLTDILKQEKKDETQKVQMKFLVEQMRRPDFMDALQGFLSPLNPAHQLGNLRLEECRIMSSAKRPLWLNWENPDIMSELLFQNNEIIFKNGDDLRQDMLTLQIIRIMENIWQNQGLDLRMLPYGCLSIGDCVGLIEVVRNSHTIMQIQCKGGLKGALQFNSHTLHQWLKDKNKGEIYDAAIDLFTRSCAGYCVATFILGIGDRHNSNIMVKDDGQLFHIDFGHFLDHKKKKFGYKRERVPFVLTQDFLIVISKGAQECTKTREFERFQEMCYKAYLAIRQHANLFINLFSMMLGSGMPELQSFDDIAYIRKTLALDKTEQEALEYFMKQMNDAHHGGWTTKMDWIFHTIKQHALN
# Sequence of PI3K-alpha (P27986 whole entry partner, looked up, canonical isoform): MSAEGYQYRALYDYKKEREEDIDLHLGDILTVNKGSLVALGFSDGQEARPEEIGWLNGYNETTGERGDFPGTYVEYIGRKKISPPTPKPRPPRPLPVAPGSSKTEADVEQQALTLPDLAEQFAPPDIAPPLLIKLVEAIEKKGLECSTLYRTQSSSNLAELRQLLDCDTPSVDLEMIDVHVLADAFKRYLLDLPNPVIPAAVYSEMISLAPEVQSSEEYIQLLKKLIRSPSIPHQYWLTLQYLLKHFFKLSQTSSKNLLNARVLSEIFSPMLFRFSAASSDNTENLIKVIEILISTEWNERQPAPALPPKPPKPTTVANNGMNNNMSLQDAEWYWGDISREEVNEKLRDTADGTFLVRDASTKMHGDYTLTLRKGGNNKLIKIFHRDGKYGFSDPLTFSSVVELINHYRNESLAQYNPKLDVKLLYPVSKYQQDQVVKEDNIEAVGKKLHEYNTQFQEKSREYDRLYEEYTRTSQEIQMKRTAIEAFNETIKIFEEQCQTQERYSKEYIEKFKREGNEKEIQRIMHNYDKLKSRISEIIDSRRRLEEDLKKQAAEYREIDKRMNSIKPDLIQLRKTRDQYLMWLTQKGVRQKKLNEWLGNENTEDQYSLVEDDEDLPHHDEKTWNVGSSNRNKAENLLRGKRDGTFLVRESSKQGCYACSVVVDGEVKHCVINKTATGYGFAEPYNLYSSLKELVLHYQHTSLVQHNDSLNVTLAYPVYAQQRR
row,Structure (SMILES),Relative Selectivity versus PI3Kalpha
1,"CCn1ncc(-c2nc3c(O[C@H]4CCN(c5cc(-n6cc(C)cn6)ncn5)C4)ncnc3n2C)c1C [Compound 7-9, 8-(1-ethyl-5-methyl-1H-pyrazol-4-yl)-9-methyl-6-({(3S)-1-[6-(4-methyl-1H-pyrazol-1-yl)pyrimidin-4-yl]pyrrolidin-3-yl}oxy)-9H-purine]",>10
2,"CCn1ncc(-c2nc3c(O[C@H]4CCN(c5nccc(-c6ccco6)n5)C4)ncnc3n2C)c1C [Compound 7-10, 8-(1-ethyl-5-methyl-1H-pyrazol-4-yl)-6-{[(3S)-1-(4-furan-2-ylpyrimidin-2-yl)pyrrolidin-3-yl]oxy}-9-methyl-9H-purine]",>10
3,"CCn1ncc(-c2nc3c(O[C@H]4CCN(c5cncc(C)n5)C4)ncnc3n2C)c1C [Compound 7-11, 8-(1-ethyl-5-methyl-1H-pyrazol-4-yl)-9-methyl-6-{[(3S)-1-(6-methylpyrazin-2-yl)pyrrolidin-3-yl]oxy}-9H-purine]",>10
4,"CCn1ncc(-c2nc3c(O[C@H]4CCN(c5ncnc6sc(C)c(C)c56)C4)ncnc3n2C)c1C [Compound 7-12, 6-{[(3S)-1-(5,6-dimethylthieno[2,3-d]pyrimidin-4-yl)pyrrolidin-3-yl]oxy}-8-(1-ethyl-5-methyl-1H-pyrazol-4-yl)-9-methyl-9H-purine]",>10
5,"CCn1ncc(-c2nc3c(O[C@H]4CCN(c5ncnc6sccc56)C4)ncnc3n2C)c1C [Compound 7-13, 8-(1-ethyl-5-methyl-1H-pyrazol-4-yl)-9-methyl-6-{[(3S)-1-thieno[2,3-d]pyrimidin-4-ylpyrrolidin-3-yl]oxy}-9H-purine]",>10
6,"CCn1ncc(-c2nc3c(O[C@H]4CCN(c5ncnc6c5cnn6C)C4)ncnc3n2C)c1C [Compound 7-14, 4-[(3S)-3-{[8-(1-ethyl-5-methyl-1H-pyrazol-4-yl)-9-methyl-9H-purin-6-yl]oxy}pyrrolidin-1-yl]-1-methyl-1H-pyrazolo[3,4-d]pyrimidine]",>10
7,"CCn1ncc(-c2nc3c(O[C@H]4CCN(c5cc(-n6cccn6)ncn5)C4)ncnc3n2C)c1C [Compound 7-15, 8-(1-ethyl-5-methyl-1H-pyrazol-4-yl)-9-methyl-6-({(3S)-1-[6-(1H-pyrazol-1-yl)pyrimidin-4-yl]pyrrolidin-3-yl}oxy)-9H-purine]",>10
8,"CCn1c(-c2cnc(C)nc2)nc2c(O[C@H]3CCN(c4ccccc4C)C3)ncnc21 [Compound 7-16, 9-ethyl-6-{[(3S)-1-(2-methylphenyl)pyrrolidin-3-yl]oxy}-8-(2-methylpyrimidin-5-yl)-9H-purine]",>10
9,"CCn1c(-c2cnc(C)nc2)nc2c(O[C@H]3CCN(c4ccccn4)C3)ncnc21 [Compound 7-17, 9-ethyl-8-(2-methylpyrimidin-5-yl)-6-{[(3S)-1-pyridin-2-ylpyrrolidin-3-yl]oxy}-9H-purine]",>10
10,"CCn1c(-c2cnc(C)nc2)nc2c(O[C@H]3CCN(c4cc(C)ccn4)C3)ncnc21 [Compound 7-18, 9-ethyl-6-{[(3S)-1-(4-methylpyridin-2-yl)pyrrolidin-3-yl]oxy}-8-(2-methylpyrimidin-5-yl)-9H-purine]",>10
11,"CCn1c(-c2cnc(C)nc2)nc2c(O[C@H]3CCN(c4ccccc4)C3)ncnc21 [Compound 7-19, 9-ethyl-8-(2-methylpyrimidin-5-yl)-6-{[(3S)-1-phenylpyrrolidin-3-yl]oxy}-9H-purine]",>10
12,"CCn1c(-c2cnc(C)nc2)nc2c(O[C@H]3CCN(c4ccc(F)cc4)C3)ncnc21 [Compound 7-20, 9-ethyl-6-{[(3S)-1-(4-fluorophenyl)pyrrolidin-3-yl]oxy}-8-(2-methylpyrimidin-5-yl)-9H-purine]",>10
13,"CCn1c(-c2cnc(C)nc2)nc2c(O[C@H]3CCN(c4cccc(F)c4)C3)ncnc21 [Compound 7-21, 9-ethyl-6-{[(3S)-1-(3-fluorophenyl)pyrrolidin-3-yl]oxy}-8-(2-methylpyrimidin-5-yl)-9H-purine]",>10
14,"CCn1c(-c2cnc(C)nc2)nc2c(O[C@H]3CCN(c4nccs4)C3)ncnc21 [Compound 7-22, 9-ethyl-8-(2-methylpyrimidin-5-yl)-6-{[(3S)-1-(1,3-thiazol-2-yl)pyrrolidin-3-yl]oxy}-9H-purine]",>10
15,"CCn1c(-c2cnc(C)nc2)nc2c(O[C@H]3CCN(c4cncnc4)C3)ncnc21 [Compound 7-23, 9-ethyl-8-(2-methylpyrimidin-5-yl)-6-{[(3S)-1-pyrimidin-5-ylpyrrolidin-3-yl]oxy}-9H-purine]",>10
16,"CCn1c(-c2cnc(C)nc2)nc2c(O[C@H]3CCN(c4cccnc4)C3)ncnc21 [Compound 7-24, 9-ethyl-8-(2-methylpyrimidin-5-yl)-6-{[(3S)-1-pyridin-3-ylprrolidin-3-yl]oxy}-9H-purine]",>10
17,"CCn1c(-c2cnc(C)nc2)nc2c(O[C@H]3CCN(c4ccc5cnoc5c4)C3)ncnc21 [Compound 7-25, 6-{[(3S)-1-(1,2-benzisoxazol-6-yl)pyrrolidin-3-yl]oxy}-9-ethyl-8-(2-methylpyrimidin-5-yl)-9H-purine]",>10

row,Structure (SMILES),Relative Selectivity versus PI3Kalpha
1,"CCn1c(-c2cnc(C)nc2)nc2c(O[C@H]3CCN(c4cnccn4)C3)ncnc21 [Compound 7-26, 9-ethyl-8-(2-methylpyrimidin-5-yl)-6-{[(3S)-1-pyrazin-2-ylpyrrolidin-3-yl]oxy}-9H-purine]",>10
2,"CCn1c(-c2cnc(C)nc2)nc2c(O[C@H]3CCCN(c4ccccn4)C3)ncnc21 [Compound 7-27, 9-ethyl-8-(2-methylpyrimidin-5-yl)-6-{[(3S)-1-pyridin-2-ylpiperidin-3-yl]oxy}-9H-purine]",>10
3,CCn1ncc(-c2nc3c(OC4CCC(C(=O)N5CCOCC5)C4)ncnc3n2C)c1C (stereo not drawn) [Compound 8-1],9
4,"CCn1ncc(-c2nc3c(OC4CCC(NC(=O)C5CCOCC5)C4)ncnc3n2C)c1C [Compound 9-3, cis-N-[(1S,3R)-3-{[8-(1-ethyl-5-methyl-1H-pyrazol-4-yl)-9-methyl-9H-purin-6-yl]oxy}cyclopentyl]tetrahydro-2H-pyran-4-carboxamide]",8
5,"CCn1c(-c2cnc(C)nc2)nc2c(O[C@H]3C[C@@H](NC(=O)OC(C)(C)C)C3)ncnc21 [Compound 9-5, tert-butyl (cis-3-{[9-ethyl-8-(2-methylpyrimidin-5-yl)-9H-purin-6-yl]oxy}cyclobutyl)carbamate]",>10
6,"CCn1c(-c2cnc(C)nc2)nc2c(O[C@H]3C[C@H](NC(=O)OC(C)(C)C)C3)ncnc21 [Compound 9-6, tert-butyl (trans-3-{[9-ethyl-8-(2-methylpyrimidin-5-yl)-9H-purin-6-yl]oxy}cyclobutyl)carbamate]",>10
7,"CCC(=O)N[C@H]1CC[C@H](Oc2ncnc3c2nc(-c2cnc(C)nc2)n3CC)CC1 [Compound 9-7, N-(trans-4-{[9-ethyl-8-(2-methylpyrimidin-5-yl)-9H-purin-6-yl]oxy}cyclohexyl)propanamide]",>10
8,"CCn1c(-c2cnc(C)nc2)nc2c(O[C@H]3CC[C@@H](NC(=O)C4CC4)CC3)ncnc21 [Compound 9-8, N-(cis-4-{[9-ethyl-8-(2-methylpyrimidin-5-yl)-9H-purin-6-yl]oxy}cyclohexyl)cyclopropane carboxamide]",>10
9,"CCn1c(-c2cnc(C)nc2)nc2c(O[C@H]3C[C@H](NS(=O)(=O)CC)C3)ncnc21 [Compound 9-10, trans-N-(3-{[9-ethyl-8-(2-methylpyrimidin-5-yl)-9H-purin-6-yl]oxy}cyclobutyl) ethanesulfonamide]",>10
10,"CCn1ncc(-c2nc3c(S[C@H]4CCN(C(=O)OC(C)(C)C)C4)ncnc3n2C)c1C [Compound 10-1, (S)-tert-butyl 3-((8-(1-ethyl-5-methyl-1H-pyrazol-4-yl)-9-methyl-9H-purin-6-yl)thio)pyrrolidine-1-carboxylate]",>10
11,"CCn1ncc(-c2nc3c(S(=O)(=O)[C@H]4CCN(C(=O)OC(C)(C)C)C4)ncnc3n2C)c1C [Compound 10-2, (S)-tert-butyl 3-((8-(1-ethyl-5-methyl-1H-pyrazol-4-yl)-9-methyl-9H-purin-6-yl)sulfonyl)pyrrolidine-1-carboxylate]",8
12,"CCn1ncc(-c2nc3c(S[C@H]4CCN(C(=O)C5CCOCC5)C4)ncnc3n2C)c1C [Compound 10-3, (S)-(3-((8-(1-ethyl-5-methyl-1H-pyrazol-4-yl)-9-methyl-9H-purin-6-yl)thio)pyrrolidin-1-yl)(tetrahydro-2H-pyran-4-yl)methanone]",>10
13,"CCC(=O)N1CC[C@H](Sc2ncnc3c2nc(-c2cnn(CC)c2C)n3C)C1 [Compound 10-4, (S)-1-(3-((8-(1-ethyl-5-methyl-1H-pyrazol-4-yl)-9-methyl-9H-purin-6-yl)thio)pyrrolidin-1-yl)propan-1-one]",>10
14,"CCn1ncc(-c2nc3c(S(=O)(=O)[C@H]4CCN(C(=O)C5CCOCC5)C4)ncnc3n2C)c1C [Compound 10-5, (S)-(3-((8-(1-ethyl-5-methyl-1H-pyrazol-4-yl)-9-methyl-9H-purin-6-yl)sulfonyl)pyrrolidin-1-yl)(tetrahydro-2H-pyran-4-yl)methanone]",5
15,"CCC(=O)N1CC[C@H](S(=O)(=O)c2ncnc3c2nc(-c2cnn(CC)c2C)n3C)C1 [Compound 10-6, (S)-1-(3-((8-(1-ethyl-5-methyl-1H-pyrazol-4-yl)-9-methyl-9H-purin-6-yl)sulfonyl)pyrrolidin-1-yl)propan-1-one]",5
16,"CCn1ncc(-c2nc3c(S[C@H]4CCN(C(=O)C5CC5)C4)ncnc3n2C)c1C [Compound 10-7, (S)-cyclopropyl(3-((8-(1-ethyl-5-methyl-1H-pyrazol-4-yl)-9-methyl-9H-purin-6-yl)thio)pyrrolidin-1-yl)methanone]",>10
